row,melting point,Compound
1,133 to 135 °C,CC(C)c1ccc(-c2ccccc2C(=O)Nc2ccc(N3CCN(Cc4cccc(C#N)c4)CC3)cc2)cc1
2,120 to 124 °C,Cc1ccc(-c2ccc(C(F)(F)F)cc2)c(C(=O)Nc2ccc(N3CCN(Cc4cccc(C#N)c4)CC3)cc2)c1
3,151 to 155 °C,COc1ccc(-c2ccc(C(F)(F)F)cc2)c(C(=O)Nc2ccc(N3CCN(Cc4cccc(C#N)c4)CC3)cc2)c1
4,118 to 122 °C,CCc1ccc(-c2ccccc2C(=O)Nc2ccc(N3CCN(Cc4cccc(C#N)c4)CC3)cc2)cc1
5,124 to 128 °C,COc1ccc(-c2ccccc2C(=O)Nc2ccc(N3CCN(Cc4cccc(C#N)c4)CC3)cc2)cc1
6,117 to 121 °C,N#Cc1cccc(CN2CCN(c3ccc(NC(=O)c4ccccc4-c4cccc(C(F)(F)F)c4)cc3)CC2)c1
7,140 to 144 °C,Cc1ccc(-c2ccccc2C(=O)Nc2ccc(N3CCN(Cc4cccc(C#N)c4)CC3)cc2)cc1C
8,72 to 76 °C,Cc1ccc(-c2ccccc2C(=O)Nc2ccc(N3CCN(Cc4cccc(C#N)c4)CC3)cc2)c(C)c1
9,116 to 120 °C,COc1ccc(-c2ccccc2C(=O)Nc2ccc(N3CCN(Cc4cccc(C#N)c4)CC3)cc2)cc1OC
10,194 to 196 °C,O=C(Nc1ccc(N2CCN(Cc3ccncc3)CC2)cc1)c1ccccc1-c1ccc(C(F)(F)F)cc1
11,168 to 170 °C,COc1cccc(CN2CCN(c3ccc(NC(=O)c4ccccc4-c4ccc(C(F)(F)F)cc4)cc3)CC2)c1 (hydrate or solvate)
12,189 to 190.5 °C,O=C(Nc1ccc(N2CCN(Cc3cccc(F)c3)CC2)cc1)c1ccccc1-c1ccc(C(F)(F)F)cc1 (hydrate or solvate)
13,168 to 170 °C,O=C(Nc1ccc(N2CCN(Cc3ccccn3)CC2)cc1)c1ccccc1-c1ccc(C(F)(F)F)cc1 (hydrate or solvate)
14,169 to 171 °C,"N#Cc1cccc(CN2CCN(c3ccc(NC(=O)c4ccccc4-c4ccccc4)cc3)CC2)c1 (hydrate or solvate) [Example 11, Biphenyl-2-carboxylic acid (4-[4-(3-cyano-benzyl)-piperazin-1-yl]-phenyl]-amide]"
15,133 to 134 °C,"N#Cc1cccc(CN2CCN(c3ccc(NC(=O)c4ccccc4Oc4ccccc4)cc3)CC2)c1 (hydrate or solvate) [Example 14, N-[4-[4-(3-Cyano-benzyl)-piperazin-1-yl]-phenyl]-2-phenoxy-benzamide]"
16,209 to 211 °C,"N#Cc1cccc(CN2CCN(c3ccc(NC(=O)c4ccccc4-c4ncc(-c5ccccc5)o4)cc3)CC2)c1 (hydrate or solvate) [Example 15, N-[4-[4-(3-Cyano-benzyl)-piperazin-1-yl]-phenyl]-2-(5-phenyl-oxazol-2-yl)-benzamide]"
17,187 to 189 °C,"O=C(Nc1ccc(N2CCN(Cc3nccs3)CC2)cc1)c1ccccc1-c1ccc(C(F)(F)F)cc1 (hydrate or solvate) [Example 59, 4′-Trifluoromethyl-biphenyl-2-carboxylic acid [4-(4-thiazol-2-ylmethyl-piperazin-1-yl)-phenyl]-amide]"
18,188 to 190 °C,"CC(C)c1ccc(-c2cc(Cl)ccc2C(=O)Nc2ccc(N3CCN(Cc4cccc(C#N)c4)CC3)cc2)cc1 [Example 7, 5-Chloro-4′-isopropyl-biphenyl-2-carboxylic acid [4-[4-(3-cyano-benzyl)-piperazin-1-yl]-phenyl]-amide]"
19,215 to 217 °C,"COc1cccc(C(=O)Nc2ccc(N3CCN(Cc4cccc(C#N)c4)CC3)cc2)c1-c1ccc(C(F)(F)F)cc1 [Example 8, 6-Methoxy-4′-trifluoromethyl-biphenyl-2-carboxylic acid [4-[4-(3-cyano-benzyl)-piperazin-1-yl]-phenyl]-amide]"
20,166 to 168 °C,"Cc1ccc(C(=O)Nc2ccc(N3CCN(Cc4cccc(C#N)c4)CC3)cc2)c(-c2ccc(C(F)(F)F)cc2)c1 [Example 9, 5-Methyl-4′-trifluoromethyl-biphenyl-2-carboxylic acid [4-[4-(3-cyano-benzyl)-piperazin-1-yl]-phenyl]-amide]"

row,melting point,Compound
1,164 to 165 °C,"N#Cc1cccc(CN2CCN(c3ccc(NC(=O)c4ccc(Cl)cc4-c4ccc(C(F)(F)F)cc4)cc3)CC2)c1 [Example 10, 5-Chloro-4′-trifluoromethyl-biphenyl-2-carboxylic acid [4-[4-(3-cyano-benzyl)-piperazin-1-yl]-phenyl]-amide]"
2,159 to 161 °C,"COc1ccc(C(=O)Nc2ccc(N3CCN(Cc4cccc(C#N)c4)CC3)cc2)c(-c2ccccc2)c1 [Example 12, 5-Methoxy-biphenyl-2-carboxylic acid [4-[4-(3-cyano-benzyl)-piperazin-1-yl]-phenyl]-amide]"
3,200 to 202 °C,"N#Cc1cccc(CN2CCN(c3ccc(NC(=O)c4ccccc4-c4ccc(F)cc4)cc3)CC2)c1 [Example 23, 4′-Fluoro-biphenyl-2-carboxylic acid [4-[4-(3-cyano-benzyl)-piperazin-1-yl]-phenyl]-amide]"
4,190 to 191 °C,"N#Cc1cccc(CN2CCN(c3ccc(NC(=O)c4ccccc4OCc4ccc(C(F)(F)F)cc4)cc3)CC2)c1 [Example 27, N-[4-[4-(3-Cyano-benzyl)-piperazin-1-yl]-phenyl]-2-(4-trifluoromethyl-benzyloxy)-benzamide]"
5,118 to 119.5 °C,"COc1cccc(C(=O)Nc2ccc(N3CCN(Cc4cccc(C#N)c4)CC3)cc2)c1OCc1ccc(C(F)(F)F)cc1 [Example 28, N-[4-[4-(3-Cyano-benzyl)-piperazin-1-yl]-phenyl]-3-methoxy-2-(4-trifluoromethyl-benzyloxy)-benzamide]"
6,118 to 120 °C,"COc1cccc(C(=O)Nc2ccc(N3CCN(Cc4cccc(C#N)c4)CC3)cc2)c1OCc1ccc(F)cc1 [Example 29, N-[4-[4-(3-Cyano-benzyl)-piperazin-1-yl]-phenyl]-2-(4-fluoro-benzyloxy)-3-methoxy-benzamide]"
7,140 to 142 °C,"COc1cccc(C(=O)Nc2ccc(N3CCN(Cc4cccc(C#N)c4)CC3)cc2)c1OCCc1ccccc1 [Example 30, N-[4-[4-(3-Cyano-benzyl)-piperazin-1-yl]-phenyl]-3-methoxy-2-phenethyloxy-benzamide]"
8,102 to 104 °C,"COc1cccc(C(=O)Nc2ccc(N3CCN(Cc4cccc(C#N)c4)CC3)cc2)c1OCCC1CCCCC1 [Example 31, N-[4-[4-(3-Cyano-benzyl)-piperazin-1-yl]-phenyl]-2-(2-cyclohexyl-ethoxy)-3-methoxy-benzamide]"
9,119 to 121 °C,"N#Cc1cccc(CN2CCN(c3ccc(NC(=O)c4ccccc4OCCC4CCCCC4)cc3)CC2)c1 [Example 32, N-[4-[4-(3-Cyano-benzyl)-piperazin-1-yl]-phenyl]-2-(2-cyclohexyl-ethoxy)-benzamide]"
10,134 to 136 °C,"COc1cccc(C(=O)Nc2ccc(N3CCN(Cc4cccc(C#N)c4)CC3)cc2)c1OCCCc1ccccc1 [Example 33, N-[4-[4-(3-Cyano-benzyl)-piperazin-1-yl]-phenyl]-3-methoxy-2-(3-phenyl-propoxy)-benzamide]"
11,170 to 172 °C,"N#Cc1cccc(CN2CCN(c3cccc(NC(=O)c4ccccc4-c4ccc(C(F)(F)F)cc4)c3)CC2)c1 [Example 36, 4′-Trifluoromethyl-biphenyl-2-carboxylic Acid [3-[4-(3-cyano-benzyl)-piperazin-1-yl]-phenyl]-amide]"
12,207 to 209 °C,"COc1ccc(-c2ccc(C(C)C)cc2)c(C(=O)Nc2ccc(N3CCN(CC(N)=O)CC3)cc2)c1 [Example 38, 4′-Isopropyl-4-methoxy-biphenyl-2-carboxylic Acid [4-(4-carbamoylmethyl-piperazin-1-yl)-phenyl]-amide]"
13,196 to 198 °C,"Cc1cccc(C(=O)Nc2ccc(N3CCN(CC(N)=O)CC3)cc2)c1-c1ccc(C(F)(F)F)cc1 [Example 40, 6-Methyl-4′-trifluoromethyl-biphenyl-2-carboxylic acid [4-(4-carbamoylmethyl-piperazin-1-yl)-phenyl]-amide]"
14,167 to 169 °C,"CCOC(=O)CN1CCN(c2ccc(NC(=O)c3ccccc3-c3ccc(C(F)(F)F)cc3)cc2)CC1 [Example 42, 4′-Trifluoromethyl-biphenyl-2-carboxylic acid [4-(4-ethoxycarbonylmethyl-piperazin-1-yl)-phenyl)-amide]"
15,176 to 178 °C,"CCOCCN1CCN(c2ccc(NC(=O)c3ccccc3-c3ccc(C(F)(F)F)cc3)cc2)CC1 [Example 43, 4′-Trifluoromethyl-biphenyl-2-carboxylic acid [4-(4-(2-ethoxy-ethyl)-piperazin-1-yl]-phenyl]-amide]"
16,208 to 210 °C,"O=C(Nc1ccc(N2CCN(CCCO)CC2)cc1)c1ccccc1-c1ccc(C(F)(F)F)cc1 [Example 44, 4′-Trifluoromethyl-biphenyl-2-carboxylic acid [4-(4-(3-hydroxy-propyl)-piperazin-1-yl]-phenyl]-amide]"
17,189 to 191 °C,"O=C(Nc1ccc(N2CCN(Cc3ccc4c(c3)OCO4)CC2)cc1)c1ccccc1-c1ccc(C(F)(F)F)cc1 [Example 48, 4′-Trifluoromethyl-biphenyl-2-carboxylic acid [4-(4-(3,4-methylenedioxy-benzyl)-piperazin-1-yl)-phenyl]-amide]"
18,199 to 201 °C,"NC(=O)c1cccc(CN2CCN(c3ccc(NC(=O)c4ccccc4-c4ccc(C(F)(F)F)cc4)cc3)CC2)c1 [Example 50, 4′-Trifluoromethyl-biphenyl-2-carboxylic acid {4-[4-(3-carbamoyl-benzyl)-piperazin-1-yl]-phenyl)amide]"
19,198 to 200 °C,"O=C(Nc1ccc(N2CCN(Cc3ccc(F)cc3)CC2)cc1)c1ccccc1-c1ccc(C(F)(F)F)cc1 [Example 52, 4′-Trifluoromethyl-biphenyl-2-carboxylic acid [4-[4-(4-fluoro-benzyl)-piperazin-1-yl]-phenyl]-amide]"
20,190 to 192 °C,"COC(=O)c1cccc(CN2CCN(c3ccc(NC(=O)c4ccccc4-c4ccc(C(F)(F)F)cc4)cc3)CC2)c1 [Example 55, 4′-Trifluoromethyl-biphenyl-2-carboxylic acid [4-[4-(3-carbomethoxy-benzyl)-piperazin-1-yl]-phenyl]-amide]"

# From patent US6552022B1, “Benzamide derivatives and their use as ApoB-100 secretion inhibitors” (SmithKline Beecham Corporation, priority 1998, dated 2003)
